Test results from patent US11897904B2, “Herbicidally active bicyclic benzamides” (Bayer Aktiengesellschaft, priority 2017, dated 2024).

Assays:
STEME [1] = assay: Post-emergence herbicidal action; assay type: in vivo, Stellaria media; settings: 80 g/ha, rated visually after about 3 weeks vs untreated controls
Experimental: (§1) 2. Post-Emergence Herbicidal Action and Crop Plant Compatibility
(§2) Seeds of monocotyledonous and dicotyledonous weeds and crop plants are placed in sandy loam in plastic or organic planting pots, covered with soil and cultivated in a greenhouse under controlled growth conditions. 2 to 3 weeks after sowing, the test plants are treated at the one-leaf stage. The compounds of the invention, formulated in the form of wettable powders (WP) or as emulsion concentrates (EC), are then sprayed onto the green parts of the plants as aqueous suspension or emulsion with addition of 0.5% additive at a water application rate of […] (converted). After the test plants had been kept in the greenhouse under optimum growth conditions for about 3 weeks, the activity of the preparations is rated visually in comparison to untreated controls. The tables below show the herbicidal activity of numerous compounds according to the invention against important harmful plants. For example, 100% activity=the plants have died, 0% activity=like control plants.

PHBPU = assay: Post-emergence herbicidal action; assay type: in vivo, Ipomoea purpurea; settings: 80 g/ha, rated visually after about 3 weeks vs untreated controls
Experimental: as §1, §2

AMARE [2] = assay: Post-emergence herbicidal action; assay type: in vivo, Amaranthus retroflexus; settings: 80 g/ha, rated visually after about 3 weeks vs untreated controls
Experimental: as §1, §2

ECHCG [3] = assay: Post-emergence herbicidal action; assay type: in vivo, Echinochloa crus-galli; settings: 80 g/ha, rated visually after about 3 weeks vs untreated controls
Experimental: as §1, §2

STEME [4] = assay: Pre-emergence herbicidal action; assay type: in vivo, Stellaria media; settings: 320 g/ha, scored visually after about 3 weeks vs untreated controls
Text: (§3) 1. Pre-Emergence Herbicidal Action and Crop Plant Compatibility
(§4) Seeds of monocotyledonous and dicotyledonous weed plants and crop plants are placed in plastic or organic planting pots and covered with soil. The compounds of the invention, formulated in the form of wettable powders (WP) or as emulsion concentrates (EC), are then applied onto the surface of the covering soil as aqueous suspension or emulsion with addition of 0.5% additive at a water application rate of 600 l/ha (converted). After the treatment, the pots are placed in a greenhouse and kept under good growth conditions for the trial plants. After about 3 weeks, the effect of the preparations is scored visually in comparison with untreated controls as percentages. The tables below show the herbicidal activity of numerous compounds according to the invention against important harmful plants. For example, 100% activity=the plants have died, 0% activity=like control plants.

VERPE [5] = assay: Pre-emergence herbicidal action; assay type: in vivo, Veronica persica; settings: 320 g/ha, scored visually after about 3 weeks vs untreated controls
Text: as §3, §4

CYPES = assay: Pre-emergence herbicidal action; assay type: in vivo, Cyperus esculentus; settings: dosage 320 g/ha, scored visually after about 3 weeks vs untreated controls, 100% = plants have died, 0% = like control plants
Text: as §3, §4

AMARE [6] = assay: Pre-emergence herbicidal action; assay type: in vivo, Amaranthus retroflexus; settings: 320 g/ha, scored visually after about 3 weeks vs untreated controls
Text: as §3, §4

VIOTR [7] = assay: Post-emergence herbicidal action; assay type: in vivo, Viola tricolor; settings: 80 g/ha, rated visually after about 3 weeks vs untreated controls
Experimental: as §1, §2

MATIN [8] = assay: Post-emergence herbicidal action; assay type: in vivo, Matricaria inodora; settings: 80 g/ha, rated visually after about 3 weeks vs untreated controls
Experimental: as §1, §2

VERPE [9] = assay: Post-emergence herbicidal action; assay type: in vivo, Veronica persica; settings: 80 g/ha, rated visually after about 3 weeks vs untreated controls
Experimental: as §1, §2

MATIN [10] = assay: Pre-emergence herbicidal action; assay type: in vivo, Matricaria inodora; settings: 320 g/ha; for herbicidal activity MATIN: pre-emergence, scored visually after about 3 weeks vs untreated controls
Text: as §3, §4

VIOTR [11] = assay: Pre-emergence herbicidal action; assay type: in vivo, Viola tricolor; settings: 320 g/ha, scored visually after about 3 weeks vs untreated controls
Text: as §3, §4

ECHCG [12] = assay: Pre-emergence herbicidal action; assay type: in vivo, Echinochloa crus-galli; settings: 320 g/ha, scored visually after about 3 weeks vs untreated controls
Text: as §3, §4

ABUTH [13] = assay: Pre-emergence herbicidal action; assay type: in vivo, Abutilon theophrasti; settings: 320 g/ha; for herbicidal activity ABUTH: pre-emergence, scored visually after about 3 weeks vs untreated controls
Text: as §3, §4

numerous harmful plants [14] = assay: Pre-emergence comparative experiment, herbicidal activity; assay type: in vivo
Text: as §4, with “control plants. In a comparative experiment, by way of example, the herbicidal activity of compound No. 2-53 according to the invention was compared to that of compound No. A-117 known from WO 2013/076315 A2.” for “control plants.”

numerous harmful plants [15] = assay: Post-emergence comparative experiment, herbicidal activity; assay type: in vivo
Experimental: as §2, with “control plants. In a comparative experiment, by way of example, the herbicidal activity of compound No. 2-53 according to the invention was compared to that of compound No. A-117 known from WO 2013/076315 A2.” for “control plants.”

SETVI [16] = assay: Pre-emergence herbicidal action; assay type: in vivo, Setaria viridis; settings: 320 g/ha; for herbicidal activity SETVI: pre-emergence, scored visually after about 3 weeks vs untreated controls
Text: as §3, §4

ALOMY [17] = assay: Post-emergence herbicidal action; assay type: in vivo, Alopecurus myosuroides; settings: post-emergence comparative experiment, 80 g/ha
Experimental: as §1, §2

AVEFA [18] = assay: Post-emergence herbicidal action; assay type: in vivo, Avena fatua; settings: post-emergence comparative experiment, 80 g/ha
Experimental: as §1, §2

AVEFA [19] = assay: Pre-emergence herbicidal action; assay type: in vivo, Avena fatua; settings: pre-emergence comparative experiment, 320 g/ha
Text: as §3, §4

POLCO = assay: Post-emergence herbicidal action; assay type: in vivo, Polygonum convolvulus; settings: post-emergence comparative experiment, 80 g/ha
Experimental: as §1, §2

ALOMY [20] = assay: Pre-emergence herbicidal action; assay type: in vivo, Alopecurus myosuroides; settings: pre-emergence comparative experiment, 320 g/ha
Text: as §3, §4

ABUTH [21] = assay: Post-emergence herbicidal action; assay type: in vivo, Abutilon theophrasti; settings: 80 g/ha; for herbicidal activity ABUTH: post-emergence, rated visually after about 3 weeks vs untreated controls
Experimental: as §1, §2

LOLMU = assay: Post-emergence herbicidal action; assay type: in vivo, Lolium multiflorum; settings: post-emergence comparative experiment, 80 g/ha
Experimental: as §1, §2

SETVI [22] = assay: Post-emergence herbicidal action; assay type: in vivo, Setaria viridis; settings: 80 g/ha, rated visually after about 3 weeks vs untreated controls
Experimental: as §1, §2

[23] = pre-emergence comparative experiment

Compound	herbicidal activity STEME (STEME [1]) [%]	herbicidal activity PHBPU (PHBPU) [%]	herbicidal activity AMARE (AMARE [2]) [%]	herbicidal activity ECHCG (ECHCG [3]) [%]	herbicidal activity STEME (STEME [4]) [%]	herbicidal activity VERPE (VERPE [5]) [%]	herbicidal activity CYPES (CYPES) [%]	herbicidal activity AMARE (AMARE [6]) [%]	herbicidal activity VIOTR (VIOTR [7]) [%]	herbicidal activity MATIN (MATIN [8]) [%]	herbicidal activity VERPE (VERPE [9]) [%]	herbicidal activity MATIN (MATIN [10]) [%]	herbicidal activity VIOTR (VIOTR [11]) [%]	herbicidal activity ECHCG (ECHCG [12]) [%]	herbicidal activity ABUTH (ABUTH [13]) [%]	herbicidal activity SETVI (SETVI [16]) [%]	herbicidal activity ABUTH (ABUTH [21]) [%]	herbicidal activity SETVI (SETVI [22]) [%]	further results
CCn1nnnc1NC(=O)c1ccc(C(F)(F)F)c2c1OCS2(=O)=O [Example 3-82]	100	90	100	80	100	100	90	100	100	100	100	100	100	100	90	–	–	–	–
Cn1nnnc1NC(=O)c1ccc(C(F)(F)F)c2c1OCS2 [Example 2-53, 4-(trifluoromethyl)-1,3-benzoxathiolane-N-(1-methyltetrazol-5-yl)-7-carboxamide]	–	–	–	–	–	–	–	–	–	–	–	–	–	–	–	–	–	–	herbicidal activity compared to that of compound No. A-117 (numerous harmful plants [14]): superiority; herbicidal activity compared to that of compound No. A-117 (numerous harmful plants [15]): superiority; Herbicidal action against SETVI (SETVI [16]; [23]): 80%; Herbicidal action against ALOMY (ALOMY [17]): 80%; Herbicidal action against AVEFA (AVEFA [18]): 100%; Herbicidal action against AVEFA (AVEFA [19]): 60%; Herbicidal action against POLCO (POLCO): 80%; Herbicidal action against MATIN (MATIN [10]; [23]): 90%; Herbicidal action against ALOMY (ALOMY [20]): 30%; Herbicidal action against ABUTH (ABUTH [21]; post-emergence comparative experiment): 80%; Herbicidal action against LOLMU (LOLMU): 70%; Herbicidal action against ABUTH (ABUTH [13]; [23]): 90%
CCn1nnnc1NC(=O)c1ccc(C(F)(F)F)c2c1OC[S+]2[O-] (centres unmarked) [Example 3-67]	100	100	100	100	100	100	80	100	100	90	100	90	100	100	90	80	80	–	–
CC1Oc2c(C(=O)Nc3nnnn3C)ccc(C(F)(F)F)c2S1(=O)=O (centres unmarked) [Example 2-106]	100	80	100	100	90	–	90	100	100	90	–	100	100	90	100	90	90	100	–
Cn1nnnc1NC(=O)c1ccc(C(F)(F)F)c2c1OC[S+]2[O-] (centres unmarked) [Example 2-68, 4-(trifluoromethyl)-1,3-benzoxathiolane-N-(1-methyltetrazol-5-yl)-7-carboxamide 3-oxide]	100	90	100	100	90	100	90	100	100	90	100	90	100	90	90	100	–	90	–
Cn1nnnc1NC(=O)c1ccc(C(F)(F)F)c2c1OCS2(=O)=O [Example 2-83]	100	90	100	90	100	100	100	100	100	100	90	90	100	100	100	100	90	90	–
